Assay results: patent US7674813B2, “Heterocyclic sulfonamide inhibitors of beta amyloid production containing an azole” (Wyeth, priority 2004, dated 2010)

Assays:
Type in all cases: cell-based
beta amyloid 40 = assay: Aβ40/42 ELISA Assay (Aβ40); conditions: Cricetulus griseus; CHO cells carrying the APP-REP-NL plasmid, 22 hours, sandwich ELISA
Description: (§1) Compounds are diluted from DMSO stocks to 2 μM and below in a cell culture medium. Compounds are then applied to CHO cells carrying the APP-REP-NL plasmid [Sudhir et. al, J. Biolog. Chem. 267:25602-25608 (1992)] for a period of 22 hours. After the conditioning period, medium is collected, diluted in assay buffer containing protein, and samples, controls, and synthetic peptide standards are incubated on a prepared ELISA plate. Using a sandwich ELISA with antibodies specifically directed against the carboxyl terminus of beta amyloid 40 or 42 (analogous to the method reported by Haugabook et al., J. Neurosci. Methods 108:171-179 (2001) but using goat anti-mouse IgG1 (source: Southern Biotech) as the anchor, 6E10 as the capture antibody (Source: SENETEK), rabbit antiAβ40 and antiAβ42 (source: QCB) and APL-donkey anti-rabbit IgG (H+L, source: Southern Biotech) as the detection antibody), the effect of the compound treatment on the cellular production of extracellular beta amyloid is quantified. Cells treated with compound are subsequently incubated in cell culture medium containing MTS-formazan. After a short incubation period, MTS/medium containing plates are read in a spectrophotometer to determine the extent to which compound toxicity affected the cell's metabolism and ability to synthesize beta amyloid.
(§2) A. Test Samples: compound samples are supplied as 20 mM stock solutions in a 100% DMSO solution.
(§3) B. APP-REP-NL cells: Qualified cell lines are carried from week to week using 1:100 dilutions and are cultured in DMEM supplemented with 1× antibiotic/antimycotic, 200 ug/ml of G418 antibiotic, and 10% certified fetal calf serum. Cells are also banked in liquid nitrogen. Periodically, beta amyloid production is assessed, and cells are either kept in culture or replaced with progenitors at full expression.
(§4) C. Antibodies: From certified lots that have already been qualified in this assay. Antibodies are stored in small frozen aliquots at −80° C. that are thawed and used.
(§5) A compound is considered active if it has an EC50 for Aβ40 reduction of <100 μM and no toxicity at doses in the vicinity of the EC50.

[1] = system: amyloid precursor protein (APP) proteolysis; assay: Repressor Release Assay (RRA); design: key to RRA data (footnote symbols): **: Inactive due to toxicity; however, this compound, at 3-4 μM, reduces Aβ levels by 50% in CHO cells transfected with human APP695 as measured by ELISA without exhibiting toxicity.; ***: Inactive; however, this compound, at 1-4 μM, reduces Aβ levels by 50% in CHO cells transfected with human APP695 as measured by ELISA without exhibiting toxicity; conditions: transfected CHO-K1 cells; for fold induction at 20 µg/mL: Cricetulus griseus, CHO-K1, all compounds tested at 20 μg/mL, luciferase activity over diluent control, read-out: RRA data (Fold increase of APPI)
Description: The beta amyloid inhibitory activity of many of the compounds of the present invention has been determined using the Repressor Release Assay (RRA). See, Table 3 below. A compound is considered active in RRA if it leads to at least a 1.5 fold increase in luciferase activity at 20 μg/mL and is non-toxic.
The compound is considered active in RRA if it leads to at least a 1.5 fold increase in APPI as measured by an increase in luciferase activity at 20 μg/mL and is non-toxic. Shuey, D. J., Sheiffele, P., Jones, D., Cockett, M. I., and Quinet, E. M. (1999) Repressor release: a useful tool for monitoring amyloid precursor protein (APP) proteolysis in mammalian cells. Society for Neuroscience Abstracts, Vol. 25, 29th Annual Meeting of Society for Neuroscience, Miami Beach, Fla., Oct. 23-28, 1999.
CHO—K1 cells are cultured in whole DMEM media (DMEM—High Glucose with 10% fetal bovine serum, 1% Non-essential Amino Acids, and 1% Penicillin-Streptomycin) at 37° C. with 5% CO2. Two million cells are plated into 10-cm dishes 24 hrs prior to transfection.
Transient transfections are completed as recommended by Gibco BRL using their Lipofectamine Plus system. First, 6 μg of pRSVO-luc and 6 μg of APP-lacI construct DNA are added to 460 μL Opti-Mem transfection media and incubated with 30 μL Plus reagent for 15 minutes. Then, a lipid mixture of 40 μL Lipofectamine reagent and 460 μL Opti-Mem transfection media is incubated with the DNA-Plus reagent mixture for 15 minutes. During the DNA-lipid incubation, the CHO—K1 cells are washed once and covered in 5.0 mL DMEM media without Penicillin-Streptomycin. The DNA-lipid preparation is then layered onto these cells and incubated at 37° C. overnight.
One and one half million transfected cells per well (100 μL total volume) are plated into sterile, opaque Packard 96-well Cultur-Plates in clear DMEM whole media (DMEM—without phenol red) and incubated at 37° C. with 5% CO2 for 3-5 hours.
Compounds are diluted using two different protocols; one protocol is used for compounds supplied neat (weighed powder in vial) and the other protocol is used for compounds supplied in solution (20 mM in DMSO in 96-well plates). For both protocols, 25 mM Hepes and 25 mM Hepes/1% DMSO are prepared fresh to be used as diluent. The Hepes/DMSO is used as the diluent control on all experimental plates.
The following Table 1 depicts the steps for compound dilution (the last step is the addition of compound to cells/media in tissue culture plate):
Because some compounds arrive in 96-well format at 20 mM, the following Table 2 represents the protocol for their dilution (an average molecular weight of these compounds was used to calculate these dilutions and as above, the last step is the addition of compound to cells/media in tissue culture plate):
Once compounds are diluted, they are applied in duplicate on cells in tissue culture plates (prepared above). Cells are incubated with compound at 37° C. with 5% CO2 for an additional 36-48 hours.
Luciferase assays (LucLite reagent, Packard) are performed and are read on a Packard TopCount instrument. Media is removed from each 96-well plate and replaced with 100 μL PBS per well (with Mg^2+ and Ca^2+). An equal volume (100 μL) of the LucLite lysis/substrate buffer is added to each well and the plates are sealed and mixed in the dark on a rotary shaker for 15-30 minutes at room temperature. Luciferase readings are then taken on the TopCount instrument. Measurements are expressed as relative light units (RLU) and are calculated and analyzed in MS Excel as follows:
Fold Increase: amount of luciferase activity (measured in relative light units) over diluent control.
SEM: standard error of the mean for fold increase.
Activity: A compound is considered active if it results in at least a 1.5 fold increase in luciferase activity at 20 μg/mL.
Toxicity: determined by loss of signal (<0.75 fold increase).

beta amyloid 42 = assay: Aβ40/42 ELISA Assay (Aβ42); conditions: CHO cells carrying the APP-REP-NL plasmid, 22 hours, sandwich ELISA; for EC50: Cricetulus griseus
Description: as §1, §2, §3, §4, §5

Row | Compound | EC50 (beta amyloid 40) [nM] | fold induction at 20 µg/mL [1] | EC50 (beta amyloid 42) [nM] | Effect on Aβ42 production (beta amyloid 42) | RRA data (footnote symbols) ([1]; tested at 20 μg/mL)
1 | CC(C)C(NS(=O)(=O)c1ccc(Cl)s1)c1ccnn1-c1ccc(F)cc1 (racemic) [Example 15, 5-Chloro-N-{1-[1-(4-fluorophenyl)-1H-pyrazol-5-yl]-2-methylpropyl}thiophene-2-sulfonamide] | 4000 | 2.8 | 5100 |  | 
2 | CC(C)[C@@H](NS(=O)(=O)c1ccc(Cl)s1)c1ccnn1-c1ccc(F)cc1 (stereo in doubt) [Example 41, 5-Chloro-N-{(1R)-1-[1-(4-fluorophenyl)-1H-pyrazol-5-yl]-2-methylpropyl}thiophene-2-sulfonamide] | 21900 |  |  | increase | 
3 | CC(C)[C@H](NS(=O)(=O)c1ccc(Cl)s1)c1ccnn1-c1ccc(F)cc1 (stereo in doubt) [Example 42, 5-Chloro-N-{(1S)-1-[1-(4-fluorophenyl)-1H-pyrazol-5-yl]-2-methylpropyl}thiophene-2-sulfonamide] | 1000 |  | 1000 |  | 
4 | CCC(CC)C(NS(=O)(=O)c1ccc(Cl)s1)c1ccnn1Cc1ccc(OC)cc1 (centres unmarked) [Example 1, 5-Chloro-N-{2-ethyl-1-[1-(4-methoxybenzyl)-1H-pyrazol-5-yl]butyl}thiophene-2-sulfonamide] | 1000 | 7.8 | 1000 |  | 
5 | CCC(CC)C(NS(=O)(=O)c1ccc(Cl)cc1)c1ccnn1Cc1ccc(OC)cc1 (centres unmarked) [Example 2, 4-Chloro-N-{2-ethyl-1-[1-(4-methoxybenzyl)-1H-pyrazol-5-yl]butyl}benzenesulfonamide] | 6400 | 11.3 | 13000 |  | 
6 | CCC(CC)C(NS(=O)(=O)c1ccc(Br)cc1)c1ccnn1Cc1ccc(OC)cc1 (centres unmarked) [Example 3, 4-Bromo-N-{2-ethyl-1-[1-(4-methoxybenzyl)-1H-pyrazol-5-yl]butyl}benzenesulfonamide] | 6800 | 5.9 | 10000 |  | 
7 | COc1ccc(Cn2nccc2C(C)NS(=O)(=O)c2ccc(Cl)s2)cc1 (centres unmarked) [Example 4, 5-Chloro-N-{1-[1-(4-methoxybenzyl)-1H-pyrazol-5-yl]ethyl}thiophene-2-sulfonamide] | 1800 | 2.3 | 1300 |  | 
8 | COc1ccc(Cn2nccc2C(NS(=O)(=O)c2ccc(Cl)s2)C(C)C)cc1 (centres unmarked) [Example 5, 5-Chloro-N-{1-[1-(4-methoxybenzyl)-1H-pyrazol-5-yl]-2-methylpropyl}thiophene-2-sulfonamide] | 1100 | 3.5 | 900 |  | 
9 | CCCC(NS(=O)(=O)c1ccc(Cl)s1)c1ccnn1Cc1ccc(OC)cc1 (centres unmarked) [Example 6, 5-Chloro-N-{1-[1-(4-methoxybenzyl)-1H-pyrazol-5-yl]butyl}thiophene-2-sulfonamide] | 1500 | 4.7 | 1400 |  | 
10 | CCCCn1nccc1C(NS(=O)(=O)c1ccc(Cl)s1)C(CC)CC (centres unmarked) [Example 7, N-[1-(1-Butyl-1H-pyrazol-5-yl)-2-ethylbutyl]-5-chlorothiophene-2-sulfonamide] | 2400 | 5.4 | 2700 |  | 
11 | CCC(CC)C(NS(=O)(=O)c1ccc(Cl)s1)c1ccnn1-c1ccc(OC)cc1 (centres unmarked) [Example 10, 5-Chloro-N-{2-ethyl-1-[1-(4-methoxyphenyl)-1H-pyrazol-5-yl]butyl}thiophene-2-sulfonamide] | 4000 | 1.7 | 10100 |  | 
12 | CCC(CC)C(NS(=O)(=O)c1ccc(Cl)s1)c1ccnn1-c1ccc(O)cc1 (centres unmarked) [Example 11, 5-Chloro-N-{2-ethyl-1-[1-(4-hydroxyphenyl)-1H-pyrazol-5-yl]butyl}thiophene-2-sulfonamide] | 1000 | 3 | 2700 |  | 
13 | CC(C)C(NS(=O)(=O)c1ccc(Cl)s1)c1ccnn1-c1ccccc1 (centres unmarked) [Example 12, 5-Chloro-N-[2-methyl-1-(1-phenyl-1H-pyrazol-5-yl)propyl]thiophene-2-sulfonamide] | 1400 |  | 3300 |  | ***
14 | CC(NS(=O)(=O)c1ccc(Cl)s1)c1ccnn1-c1ccccc1 (centres unmarked) [Example 13, 5-Chloro-N-[1-(1-phenyl-1H-pyrazol-5-yl)ethyl]thiophene-2-sulfonamide] | 4800 | 6.4 | 5100 |  | 
15 | Cc1ccc(-n2nccc2C(NS(=O)(=O)c2ccc(Cl)s2)C(C)C)cc1 (centres unmarked) [Example 14, 5-Chloro-N-{2-methyl-1-[1-(4-methylphenyl)-1H-pyrazol-5-yl]propyl}thiophene-2-sulfonamide] | 1200 | 17.7 | 1200 |  | 
16 | CCC(CC)C(NS(=O)(=O)c1ccc(Cl)s1)c1ccnn1-c1ccccc1 (centres unmarked) [Example 17, 5-Chloro-N-[2-ethyl-1-(1-phenyl-1H-pyrazol-5-yl)butyl]thiophene-2-sulfonamide] | 4200 |  | 10000 |  | 
17 | CCC(CC)C(NS(=O)(=O)c1ccc(Cl)s1)c1ncnn1Cc1ccc(F)cc1 (centres unmarked) [Example 19, 5-Chloro-N-{2-ethyl-1-[1-(4-fluorobenzyl)-1H-1,2,4-triazol-5-yl]butyl}thiophene-2-sulfonamide] |  | 3.9 |  |  | 
18 | CCC(CC)C(NS(=O)(=O)c1ccc(Cl)s1)c1nccn1Cc1ccccc1 (centres unmarked) [Example 28, N-[1-(1-Benzyl-1H-imidazol-2-yl)-2-ethylbutyl]-5-chlorothiophene-2-sulfonamide] | 19400 | 1.5 |  |  | 
19 | O=S(=O)(NC(Cc1ccccc1)c1ccnn1-c1ccc(F)cc1)c1ccc(Cl)s1 (centres unmarked) [Example 35, 5-Chloro-N-{1-[1-(4-fluorophenyl)-1H-pyrazol-5-yl]-2-phenylethyl}thiophene-2-sulfonamide] | 12800 |  | 67200 |  | 
